One assay concerns the target T1, DrOTOP1 L205W (Danio rerio, UniProt Q7ZWK8, L205W).
T1 construct: A previously generated codon-optimized full-length DrOTOP1[8]; (UniProt: Q7ZWK8) construct; expressed in transfected cells; host or cells: HEK-293 (CRL-1573, ATCC)
T1 sequence (Q7ZWK8 1-586 L205W): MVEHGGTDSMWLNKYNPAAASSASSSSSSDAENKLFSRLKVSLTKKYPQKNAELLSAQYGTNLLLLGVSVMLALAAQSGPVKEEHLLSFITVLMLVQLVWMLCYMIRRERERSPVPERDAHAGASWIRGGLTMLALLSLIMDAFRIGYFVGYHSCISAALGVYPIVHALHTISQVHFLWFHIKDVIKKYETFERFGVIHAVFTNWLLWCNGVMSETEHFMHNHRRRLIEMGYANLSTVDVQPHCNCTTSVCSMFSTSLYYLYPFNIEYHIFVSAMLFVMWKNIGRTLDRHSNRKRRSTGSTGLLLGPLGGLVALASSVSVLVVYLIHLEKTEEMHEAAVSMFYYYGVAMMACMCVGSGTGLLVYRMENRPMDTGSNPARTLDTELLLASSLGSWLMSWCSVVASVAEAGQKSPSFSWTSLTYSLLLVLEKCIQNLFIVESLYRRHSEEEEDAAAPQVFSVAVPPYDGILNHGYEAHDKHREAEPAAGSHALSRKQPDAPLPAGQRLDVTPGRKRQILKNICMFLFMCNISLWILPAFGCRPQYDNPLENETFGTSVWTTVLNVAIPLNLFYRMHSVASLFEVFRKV
The experiment in a line: Whole-cell patch-clamp, inhibition of acid-evoked currents, DrOTOP1 L205W. It counts as cell-based, zebrafish (Danio rerio). Particulars: single cells or mean; for Inhibition of currents: 10 µM. The source says: (§1) To functionally test the significance of the two binding sites identified by cryo-EM, we generated point mutations of DrOTOP1 using the binding poses and conformational changes observed in DrOTOP1_C2.2 to guide our mutations. As per the binding pose that best fits our cryo-EM density, C2.2 forms the following interactions in the outer site: hydrophobic packing against many non-polar residues W126, G130, M133, L134, F271, F570, and M573, and π-stacking with W532 (Fig. 5A). In addition, C2.2 could potentially form H-bonds with E267, if the sidechain is protonated or a water bridge is present, and with H574 if it moves closer (Fig. 5A). Likewise, C2.36 presents a heterocyclic nitrogen that can potentially form a H-bond with E267, similarly, provided a protonation or water bridge is present (Fig. 5B). In addition, C2.36 forms a T-shaped π-stacking interaction with H574, whose sidechain has rotated 90 degrees (compared to DrOTOP1_apo), presumably to accommodate the interaction (Fig. 5B). Considering other inhibitors discovered from the second round of screening, many contain functional groups like the carbonyl groups of Group 1 molecules and the heterocyclic nitrogen atoms of Group 2 molecules (Supplementary Fig. 3E), that can potentially form similar H-bonds with E267 as C2.2 and C2.36, assuming the binding modes are similar. In the central site, C2.2 binds with the following interactions: hydrophobic packing with residues V201, F271, A274, V278, and A388, π-stacking with F277, and H-bonding with E384 (Fig. 5C).
(§2) We next tested mutations of the central site (L205W, A274W, F277A, E384A L385W, A388W). V201W and S389W, two additional central site mutations, were excluded from the study due to complete loss of channel activity. […]
(§3) Whole-cell patch-clamp recording was performed as previously described[6],[22],[25]. Recordings were made with an Axopatch 200B amplifier, digitized with a Digidata 1322a 16-bit data acquisition system, acquired with pClamp 8.2 and analyzed with Clampfit 10 (Molecular Devices). […]

The target of another assay is T2, DrOTOP1 L385W (Danio rerio, UniProt Q7ZWK8, L385W).
T2 construct: A previously generated codon-optimized full-length DrOTOP1[8]; (UniProt: Q7ZWK8) construct; expressed in transfected cells; host or cells: HEK-293 (CRL-1573, ATCC)
T2 sequence (Q7ZWK8 1-586 L385W): T1 sequence (Q7ZWK8 1-586 L205W) with W205L, L385W
As to the kind of experiment: Whole-cell patch-clamp, inhibition of acid-evoked currents, DrOTOP1 L385W. Type of assay: cell-based, zebrafish (Danio rerio). Particulars: single cells or mean; for Inhibition of currents: 10 µM.
Description: as §1, §2, §3

SMILES strings stand for the structures. Positions count from the first letter of the chain named. Several values for one entry are separate records, joined by “and”; a condition that tells them apart may be missing. Equal values may be shown once.

Take `C=C(C)COc1ccccc1NC(=O)c1nc[nH]c1C` [C2.2]: the Inhibition of currents at DrOTOP1 L205W (mean) was 69.03%; at DrOTOP1 L205W (single cells) it was 76.6896% and 67.1049% and 68.1116% and 69.0311%; on DrOTOP1 L385W (mean), 74.03%; at DrOTOP1 L385W (single cells), 74.8228% and 76.1135% and 70.5882% and 77.6399%. Also, the values for the inhibition at 10 µM on DrOTOP1 L205W and at DrOTOP1 L385W were 64.2% and 71%, respectively.

The values above are taken from paper PMC12549899 (Nature Communications, 2025).
